Assay [1] addresses T1, progesterone receptor (Oryctolagus cuniculus, UniProt P06186).
T1 construct: cytosol from rabbit uterus homogenate; from tissue; host or cells: rabbit uterus (cytosol of homogenate)
T1 sequence (P06186 1-930): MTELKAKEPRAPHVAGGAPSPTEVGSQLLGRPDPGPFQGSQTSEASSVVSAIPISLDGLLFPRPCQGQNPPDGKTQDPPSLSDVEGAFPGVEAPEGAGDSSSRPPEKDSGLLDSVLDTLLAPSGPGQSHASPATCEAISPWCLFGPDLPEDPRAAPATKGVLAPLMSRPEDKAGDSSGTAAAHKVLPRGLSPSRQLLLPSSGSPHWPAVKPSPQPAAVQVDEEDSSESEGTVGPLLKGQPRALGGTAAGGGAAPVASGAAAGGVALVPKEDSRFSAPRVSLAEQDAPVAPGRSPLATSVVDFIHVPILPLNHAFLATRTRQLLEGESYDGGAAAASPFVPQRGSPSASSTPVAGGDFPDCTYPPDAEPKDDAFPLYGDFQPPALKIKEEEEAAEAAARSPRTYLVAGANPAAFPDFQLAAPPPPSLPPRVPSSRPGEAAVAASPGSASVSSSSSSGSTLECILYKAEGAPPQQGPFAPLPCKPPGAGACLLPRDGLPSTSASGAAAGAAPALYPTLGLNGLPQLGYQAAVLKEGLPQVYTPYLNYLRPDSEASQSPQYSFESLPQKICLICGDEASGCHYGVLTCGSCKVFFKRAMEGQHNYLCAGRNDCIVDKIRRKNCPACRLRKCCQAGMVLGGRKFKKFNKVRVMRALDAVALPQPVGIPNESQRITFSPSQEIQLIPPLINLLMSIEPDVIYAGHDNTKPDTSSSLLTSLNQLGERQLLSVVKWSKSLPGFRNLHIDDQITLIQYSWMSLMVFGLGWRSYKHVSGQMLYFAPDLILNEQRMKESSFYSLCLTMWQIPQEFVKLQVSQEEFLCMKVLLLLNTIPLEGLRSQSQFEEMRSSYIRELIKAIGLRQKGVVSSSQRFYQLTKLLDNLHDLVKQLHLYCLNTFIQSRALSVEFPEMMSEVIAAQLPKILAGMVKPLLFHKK
Put plainly: progesterone receptor binding assay using cytosol from rabbit uterus homogenate. To be noted: for PR [KF]: 3H-progesterone = 1; for PR [RBA]: 3H-progesterone = 100. An excerpt: (§1) This object is achieved by the provision of the 18-methyl-15β,16β-methylene-19-nor-20-spirox-4-en-3-ones of the general formula I described herein.

Assay [2] has as its target T2, mineralocorticoid receptor (Rattus norvegicus, UniProt P22199).
T2 construct: mineralocorticoid receptor from rat kidney homogenate; from tissue; host or cells: rat kidney homogenate
T2 sequence (P22199 1-981): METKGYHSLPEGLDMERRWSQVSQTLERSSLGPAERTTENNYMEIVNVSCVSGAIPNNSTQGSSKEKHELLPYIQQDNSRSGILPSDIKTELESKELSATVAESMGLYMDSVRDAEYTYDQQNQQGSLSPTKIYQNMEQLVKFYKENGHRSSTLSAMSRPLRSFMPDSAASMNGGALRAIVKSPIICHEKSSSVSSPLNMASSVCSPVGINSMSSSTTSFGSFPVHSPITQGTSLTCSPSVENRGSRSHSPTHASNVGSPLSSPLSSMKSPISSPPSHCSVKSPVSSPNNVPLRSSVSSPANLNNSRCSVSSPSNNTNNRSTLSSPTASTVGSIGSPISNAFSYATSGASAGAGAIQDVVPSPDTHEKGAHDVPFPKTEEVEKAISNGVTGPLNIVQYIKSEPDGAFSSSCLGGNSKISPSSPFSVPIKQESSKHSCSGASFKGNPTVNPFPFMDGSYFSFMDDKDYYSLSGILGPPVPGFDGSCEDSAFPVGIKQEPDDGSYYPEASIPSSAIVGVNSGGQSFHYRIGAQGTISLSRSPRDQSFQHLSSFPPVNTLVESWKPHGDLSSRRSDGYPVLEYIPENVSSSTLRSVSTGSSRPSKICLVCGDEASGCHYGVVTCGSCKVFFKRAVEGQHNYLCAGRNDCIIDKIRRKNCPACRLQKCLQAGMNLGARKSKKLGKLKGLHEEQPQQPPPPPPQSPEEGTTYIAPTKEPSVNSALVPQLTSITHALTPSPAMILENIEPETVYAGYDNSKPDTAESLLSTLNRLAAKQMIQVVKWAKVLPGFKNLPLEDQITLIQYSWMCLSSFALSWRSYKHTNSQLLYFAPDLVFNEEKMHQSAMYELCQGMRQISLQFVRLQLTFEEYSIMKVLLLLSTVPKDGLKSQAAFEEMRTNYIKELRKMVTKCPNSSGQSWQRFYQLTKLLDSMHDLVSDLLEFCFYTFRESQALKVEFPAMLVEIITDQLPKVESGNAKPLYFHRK
Put plainly: mineralocorticoid receptor binding, rat kidney homogenate. The note with it: for MR [KF]: 3H-aldosterone = 1; for MR [RBA]: 3H-aldosterone = 100.
Excerpt: as §1

These results are taken from patent US7846917B2, “18-Methyl-19-norandrost-4-ene 17, 17-spiro ether (18-methyl-19-nor-20-spirox-4-en-3-one), and pharmaceutical products comprising the same” (Bayer Schering Pharma AG, priority 2006, dated 2010).

Regarding `CCC12CCC3C4CCC(=O)C=C4CC(C)C3C1C1CC1C21CCCO1` (stereo not drawn) [Example 7, 7β,18-Dimethyl-15β,16β-methylene-19-nor-20-spirox-4-en-3-one], in assay [1], the “PR [KF]” value stood at 1.08 and the “PR [RBA]” value is recorded as 93. In assay [2], the “MR [KF]” value is 0.5 and the “MR [RBA]” value is 200.
Consider `CCC12CCC3C4CCC(=O)C(C)=C4C4CC4C3C1C1CC1C21CCCO1` (stereo not drawn) [Example 17, 4,18-Dimethyl-6β,7β,15β,16β-dimethylene-19-nor-20-spirox-4-en-3-one], for which, in assay [1], the “PR [KF]” value turned out to be 3.45 and the “PR [RBA]” value stood at 29. In addition, in assay [2], the “MR [KF]” value is 7.8 and the “MR [RBA]” value is 13.
As to `CCC1CC2=CC(=O)CCC2C2CCC3(CC)C(C4CC4C34CCCO4)C12` (stereo not drawn) [Example 9, 7β-Ethyl-18-methyl-15β,16β-methylene-19-nor-20-spirox-4-en-3-one], in assay [1], the “PR [KF]” value turned out to be 4.295 and the “PR [RBA]” value is 23. Further, in assay [2], the “MR [KF]” value was found to be 42 and the “MR [RBA]” value stood at 2.
Take `CC[C@]12CCC3C4CCC(=O)C=C4C4CC4C3C1[C@@H]1C[C@@H]1[C@@]21CCCO1` (stereo partly drawn) [Example 2, 18-Methyl-6α,7α,15β,16β-dimethylene-19-nor-20-spirox-4-en-3-one]: in assay [1], the “PR [KF]” value was found to be 2.34 and the “PR [RBA]” value is recorded as 43. Besides, in assay [2], the “MR [KF]” value is 0.4 and the “MR [RBA]” value came to 250.
Taken in the same sequence, the figures for `CC[C@]12CC[C@H]3[C@@H](CCC4=C(C)C(=O)CC[C@@H]43)[C@@H]1[C@@H]1C[C@@H]1[C@@]21CCCO1` [Example 14, 4,18-Dimethyl-150,16β-methylene-19-nor-20-spirox-4-en-3-one] were 3.245, 31, 7.6 and 13.
As to `CC[C@]12CC[C@H]3[C@H]([C@@H]1[C@@H]1C[C@@H]1[C@@]21CCCO1)[C@H](C)CC1=CC(=O)CC[C@@H]13` [Example 6, 7α,18-Dimethyl-15β,16β-methylene-19-nor-20-spirox-4-en-3-one], in assay [1], the “PR [KF]” value came to 1.13 and the “PR [RBA]” value came out at 88. In assay [2], the “MR [KF]” value is 0.6 and the “MR [RBA]” value is listed as 167.
With `CC[C@]12CC[C@H]3[C@H]([C@@H]1[C@@H]1C[C@@H]1[C@@]21CCCO1)[C@H](C1CC1)CC1=CC(=O)CC[C@@H]13` [Example 12, 7α-Cyclopropyl-18-methyl-15β,16β-methylene-19-nor-20-spirox-4-en-3-one], in assay [1], the “PR [KF]” value stood at 2.355 and the “PR [RBA]” value is 42. Also, in assay [2], the “MR [KF]” value is reported as 0.7 and the “MR [RBA]” value is recorded as 143.
For `C[C@]12CCC(=O)C=C1[C@@H]1C[C@@H]1[C@H]1[C@@H]3[C@@H]4C[C@@H]4[C@@]4(CCC(=O)O4)[C@@]3(C)CC[C@@H]12` [DRSP, 6β,7β-15β,16β-dimethylene-3-oxo-17-pregn-4-ene-21,17β-carbolactone, reference compound], in assay [1], the “PR [KF]” value came to 2.5 and the “PR [RBA]” value amounted to 40. Also, in assay [2], the “MR [KF]” value came out at 0.3 and the “MR [RBA]” value stood at 333.
In the same order, the values of `CC[C@]12CC[C@H]3[C@@H]([C@H]4C[C@H]4C4=C(Cl)C(=O)CC[C@@H]43)[C@@H]1[C@@H]1C[C@@H]1[C@@]21CCCO1` [Example 18, 4-Chloro-18-methyl-6β,7β,15β,16β-dimethylene-19-nor-20-spirox-4-en-3-one] are 3.01, 33, 88 and 1.
